Measured values: patent US8735414B2 (priority 2009, dated 2014)

Key:
[1] = tested on: bicistronic HCV replicon (replicon RNA, GenBank Accession No. AJ242654); assay: HCV Replicon Assay; format: cell-based; settings: Hepatitis C virus, 72 h, read-out: Replicon IC50

| SMILES | IC50 [1] | melting point |
| --- | --- | --- |
| Cc1cc2c(cc1F)c(C#N)c(-c1ccc(S(=O)(=O)N[C@@H](C)C(F)(F)F)cn1)n2-c1ccc([N+](=O)[O-])cn1 [compound 744, 6-[3-cyano-5-fluoro-6-methyl-1-(5-nitropyridin-2-yl)-1H-indol-2-yl]-N-[(2S)-1,1,1-trifluoropropan-2-yl]pyridine-3-sulfonamide] | < 500 nM | 260 to 263 °C |
| CCc1ccc2c(C#N)c(-c3ccc(S(=O)(=O)N[C@@H](C)C4CC4)cn3)n(C3CCCC3)c2c1 [compound 312, 6-(3-cyano-1-cyclopentyl-6-ethyl-1H-indol-2-yl)-N-[(1S)-1-cyclopropylethyl]pyridine-3-sulfonamide] | 500 to 2000 nM | 147.5 to 148.5 °C |
| N#Cc1c(-c2ncc(S(=O)(=O)NC(CF)CF)cn2)n(CC2CC2)c2cc(F)ccc12 [compound 164, 2-[3-cyano-1-(cyclopropylmethyl)-6-fluoro-1H-indol-2-yl]-N-(1,3-difluoropropan-2-yl)pyrimidine-5-sulfonamide] | 500 to 2000 nM | 176 to 178 °C |
| N#Cc1c(-c2ccc(S(=O)(=O)NC(CF)CF)cn2)n(-c2ccc(F)cc2)c2cc(OC(F)F)ccc12 [compound 228, 6-[3-cyano-6-(difluoromethoxy)-1-(4-fluorophenyl)-1H-indol-2-yl]-N-(1,3-difluoropropan-2-yl)pyridine-3-sulfonamide] | < 500 nM | 192 to 198 °C |
| CNC(=O)c1c(-c2ccc(S(=O)(=O)NC(C)(C)C)cn2)n(C2CCCC2)c2cc(C)c(F)cc12 [compound 799, 2-[5-(tert-butylsulfamoyl)pyridin-2-yl]-1-cyclopentyl-5-fluoro-N,6-dimethyl-1H-indole-3-carboxamide] | < 500 nM | 248 to 250 °C |
| Cc1ccc2c(c1)c(C#N)c(-c1ccc(S(=O)(=O)N[C@@H](C)C(F)(F)F)cn1)n2-c1cnccn1 [compound 845, 6-[3-cyano-5-methyl-1-(pyrazin-2-yl)-1H-indol-2-yl]-N-[(2S)-1,1,1-trifluoropropan-2-yl]pyridine-3-sulfonamide] | < 500 nM | 236 to 241 °C |
| C[C@@H](NS(=O)(=O)c1ccc(-c2c(C#N)c3cc(F)c(C4CC4)cc3n2C2CCCC2)nc1)C(F)(F)F [compound 662, 6-(3-cyano-1-cyclopentyl-6-cyclopropyl-5-fluoro-1H-indol-2-yl)-N-[(2R)-1,1,1-trifluoropropan-2-yl]pyridine-3-sulfonamide] | < 500 nM | 180 to 181 °C |
| COc1ccc2c(C#N)c(-c3ncc(S(=O)(=O)N[C@H](C)C(F)(F)F)cn3)n(C3CCC3)c2c1 [compound 183, 2-(3-cyano-1-cyclobutyl-6-methoxy-1H-indol-2-yl)-N-[(2R)-1,1,1-trifluoropropan-2-yl]pyrimidine-5-sulfonamide] | 500 to 2000 nM | 147 to 149 °C |
| CCc1ccc2c(C#N)c(-c3ccc(S(=O)(=O)N[C@@H](C)C(F)(F)F)cn3)n(C3CCC3)c2c1 [compound 338, 6-(3-cyano-1-cyclobutyl-6-ethyl-1H-indol-2-yl)-N-[(2S)-1,1,1-trifluoropropan-2-yl]pyridine-3-sulfonamide] | < 500 nM | 198 to 199 °C |
| Cc1cc2c(cc1F)c(C#N)c(-c1ccc(S(=O)(=O)N[C@@H](C)C(F)(F)F)cn1)n2-c1cnn(C)c1 [compound 1016, 6-[3-cyano-5-fluoro-6-methyl-1-(1-methyl-1H-pyrazol-4-yl)-1H-indol-2-yl]-N-[(2S)-1,1,1-trifluoropropan-2-yl]pyridine-3-sulfonamide] | < 500 nM | 233.7 to 239.3 °C |
| Cc1cc2c(cc1F)c(C#N)c(-c1ccc(S(=O)(=O)N[C@@H](C)C(F)(F)F)cn1)n2-c1ccc(C(F)(F)F)cn1 [compound 740, 6-{3-cyano-5-fluoro-6-methyl-1-[5-(trifluoromethyl)pyridin-2-yl]-1H-indol-2-yl}-N-[(2S)-1,1,1-trifluoropropan-2-yl]pyridine-3-sulfonamide] | < 500 nM | 253 to 255 °C |
| CC(C)c1ccc2c(C#N)c(-c3ccc(S(=O)(=O)NC(CF)CF)cn3)n(C3CCCC3)c2c1 [compound 457, 6-[3-cyano-1-cyclopentyl-6-(propan-2-yl)-1H-indol-2-yl]-N-(1,3-difluoropropan-2-yl)pyridine-3-sulfonamide] | < 500 nM | 163 to 172 °C |
| C[C@H](NS(=O)(=O)c1cnc(-c2c(C#N)c3ccc(OC(F)F)cc3n2C2CCCCC2)nc1)C(F)(F)F [compound 472, 2-[3-cyano-1-cyclohexyl-6-(difluoromethoxy)-1H-indol-2-yl]-N-[(2S)-1,1,1-trifluoropropan-2-yl]pyrimidine-5-sulfonamide] | < 500 nM | 187 to 189 °C |
| CCc1ccc2c(C#N)c(-c3ccc(S(=O)(=O)NC(CF)CF)cn3)n(C3CCC3)c2c1 [compound 48, 6-(3-cyano-1-cyclobutyl-6-ethyl-1H-indol-2-yl)-N-(1,3-difluoropropan-2-yl)pyridine-3-sulfonamide] | < 500 nM | 201 to 202 °C |
| C[C@H](C1CC1)n1c(-c2ccc(NS(=O)(=O)C(C)(C)C)nc2)c(C(N)=O)c2cc(F)c(OC(F)F)cc21 [compound 1085, 2-{6-[(tert-butylsulfonyl)amino]pyridin-3-yl}-1-[(1R)-1-cyclopropylethyl]-6-(difluoromethoxy)-5-fluoro-1H-indole-3-carboxamide] | < 500 nM | 228 to 230 °C |
| Cc1cc2c(cc1Cl)c(C#N)c(-c1ccc(S(=O)(=O)NC(CF)CF)cn1)n2C1CCC1 [compound 444, 6-(5-chloro-3-cyano-1-cyclobutyl-6-methyl-1H-indol-2-yl)-N-(1,3-difluoropropan-2-yl)pyridine-3-sulfonamide] | < 500 nM | 189 to 193 °C |
| C[C@@H](NS(=O)(=O)c1ccc(-c2c(C#N)c3cc(F)ccc3n2C2CCCCC2)nc1)C(F)(F)F [compound 261, 6-(3-cyano-1-cyclohexyl-5-fluoro-1H-indol-2-yl)-N-[(2R)-1,1,1-trifluoropropan-2-yl]pyridine-3-sulfonamide] | < 500 nM | 208 to 210 °C |
| N#Cc1c(-c2ccc(S(=O)(=O)NC(CF)CF)cn2)n(CC2CC2)c2ccc(F)cc12 [compound 58, 6-[3-cyano-1-(cyclopropylmethyl)-5-fluoro-1H-indol-2-yl]-N-(1,3-difluoropropan-2-yl)pyridine-3-sulfonamide] | < 500 nM | 162 to 164 °C |
| Cc1ccc2c(c1)c(C#N)c(-c1ccc(S(=O)(=O)N[C@@H](C)C(F)(F)F)cn1)n2C1CCCC1 [compound 345, 6-(3-cyano-1-cyclopentyl-5-methyl-1H-indol-2-yl)-N-[(2S)-1,1,1-trifluoropropan-2-yl]pyridine-3-sulfonamide] | < 500 nM | 195 to 200 °C |
| CCc1cc2c(cc1F)c(C#N)c(-c1ccc(S(=O)(=O)N[C@@H](C)C(F)(F)F)cn1)n2-c1ccc(F)cn1 [compound 777, 6-[3-cyano-6-ethyl-5-fluoro-1-(5-fluoropyridin-2-yl)-1H-indol-2-yl]-N-[(2S)-1,1,1-trifluoropropan-2-yl]pyridine-3-sulfonamide] | < 500 nM | 210 to 212 °C |
| CCc1cc2c(cc1F)c(C#N)c(-c1ccc(S(=O)(=O)N[C@@H](C)C(F)(F)F)cn1)n2-c1ccc(Cl)cc1 [compound 1003, 6-[1-(4-chlorophenyl)-3-cyano-6-ethyl-5-fluoro-1H-indol-2-yl]-N-[(2S)-1,1,1-trifluoropropan-2-yl]pyridine-3-sulfonamide] | < 500 nM | 279 to 289 °C |
| N#Cc1c(-c2ncc(S(=O)(=O)NC(CF)CF)cn2)n(C2CCC2)c2cc(C3CCC3)ccc12 [compound 264, 2-(3-cyano-1,6-dicyclobutyl-1H-indol-2-yl)-N-(1,3-difluoropropan-2-yl)pyrimidine-5-sulfonamide] | 500 to 2000 nM | 184 to 188 °C |
| Cc1cc2c(cc1Cl)c(C#N)c(-c1ccc(S(=O)(=O)N[C@H](C)C(F)(F)F)cn1)n2C1CCC1 [compound 445, 6-(5-chloro-3-cyano-1-cyclobutyl-6-methyl-1H-indol-2-yl)-N-[(2R)-1,1,1-trifluoropropan-2-yl]pyridine-3-sulfonamide] | < 500 nM | 213 to 215 °C |
| CC(C)(C)S(=O)(=O)Nc1ccc(-c2c(C(N)=O)c3cc(F)c(OCF)cc3n2C2CCCCC2)cn1 [compound 1102, 2-{6-[(tert-butylsulfonyl)amino]pyridin-3-yl}-1-cyclohexyl-5-fluoro-6-(fluoromethoxy)-1H-indole-3-carboxamide] | < 500 nM | 274 to 276 °C |
| C[C@@H](NS(=O)(=O)c1ccc(-c2c(C#N)c3ccc(F)cc3n2CC2CC2)nc1)C(F)(F)F [compound 216, 6-[3-cyano-1-(cyclopropylmethyl)-6-fluoro-1H-indol-2-yl]-N-[(2R)-1,1,1-trifluoropropan-2-yl]pyridine-3-sulfonamide] | 500 to 2000 nM | 173 to 175 °C |
| CC(C)NS(=O)(=O)c1ccc(-c2c(C#N)c3ccc(OC(F)(F)F)cc3n2CC2CC2)nc1 [compound 11, 6-[3-cyano-1-(cyclopropylmethyl)-6-(trifluoromethoxy)-1H-indol-2-yl]-N-(propan-2-yl)pyridine-3-sulfonamide] | 500 to 2000 nM | 203 to 205 °C |
| CCc1cc2c(cc1F)c(C#N)c(-c1ccc(S(=O)(=O)N[C@@H](C)C(F)(F)F)cn1)n2-c1ncccc1Cl [compound 965, 6-[1-(3-chloropyridin-2-yl)-3-cyano-6-ethyl-5-fluoro-1H-indol-2-yl]-N-[(2S)-1,1,1-trifluoropropan-2-yl]pyridine-3-sulfonamide] | < 500 nM | 200 to 208 °C |
| C[C@@H](NS(=O)(=O)c1ccc(-c2c(C#N)c3ccc(OC(F)F)cc3n2-c2ccc(F)cc2)nc1)C(F)(F)F [compound 649, 6-[3-cyano-6-(difluoromethoxy)-1-(4-fluorophenyl)-1H-indol-2-yl]-N-[(2R)-1,1,1-trifluoropropan-2-yl]pyridine-3-sulfonamide] | < 500 nM | 199 to 203 °C |
